These results are taken from US20250099448A1, “HETEROCYCLIC COMPOUNDS” (Hoffmann-La Roche Inc., priority 2022, published 2025).

In the test the target is T1, MAGL protein (Homo sapiens, UniProt Q99685).
T1 sequence (Q99685 1-303): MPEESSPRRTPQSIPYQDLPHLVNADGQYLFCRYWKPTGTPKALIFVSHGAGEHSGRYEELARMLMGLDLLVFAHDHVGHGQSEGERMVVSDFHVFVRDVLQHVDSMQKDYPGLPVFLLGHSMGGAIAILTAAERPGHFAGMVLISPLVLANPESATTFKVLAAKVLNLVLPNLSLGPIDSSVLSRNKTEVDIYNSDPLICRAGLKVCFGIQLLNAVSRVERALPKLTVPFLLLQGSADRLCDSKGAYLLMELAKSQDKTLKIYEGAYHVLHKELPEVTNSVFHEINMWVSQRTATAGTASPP
As to the kind of experiment: 2-AG assay: MAGL inhibitory activity by hydrolysis of 2-arachidonoylglycerol to arachidonic acid, followed by mass spectrometry. The note with it: 8 μM 2-arachidonoylglycerol, 15 min preincubation, 30 min reaction at RT, RapidFire MS readout. The class given is biochemical. In outline: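 MAGL was preincubated 15 min at RT with compound (12.5 to […], 3-fold steps) in 50 mM TRIS, 1 mM EDTA, 0.01% Tween-20, 2.5% DMSO. The reaction ran 30 min at RT with 8 μM 2-AG. Arachidonic acid was quantified by RapidFire SPE-MS/MS against a d8-arachidonic acid internal standard.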

For the molecule `O=C(N1CC2(CC(c3nc(C4(O)CC4)n[nH]3)C2)C1)N1CC2(CN(Cc3ccc(S(=O)(=O)C(F)(F)F)cc3F)C2)C1` [compound 451], the midpoint of inhibition, the IC50, lay at 1.52 nM.
Regarding `O=C(N1CC2(CC(Cc3ccc(Cl)cn3)C2)C1)N1CC2(CC(c3ncn[nH]3)C2)C1` [compound 831], the IC50 (usually the point on the concentration scale where inhibition reaches its midpoint) was 1220 nM.
The figure for `O=C(N1CC2(CCC(Cc3nnc(C(F)(F)F)[nH]3)CC2)C1)N1CC2(CC(c3nc(C4CC4)n[nH]3)C2)C1` [compound 436] is 32.3 nM.
The molecule `CS(=O)(=O)c1cnn(CC2CC3(C2)CN(C(=O)N2CC4(CC(c5nc(C6CC6)n[nH]5)C4)C2)C3)c1` [compound 953] showed an IC50 of 11.2 nM.
As for `Cc1cc(C(F)(F)F)cnc1OC1CC2(CCN(C(=O)N3CC4(CC(c5nc(C6CC6)n[nH]5)C4)C3)CC2)C1` [Example 836], inhibition was half-maximal at 0.08 nM (IC50).
The figure for `O=C(c1ccc(-c2ccccn2)s1)N1CCN(C(=O)N2CC3(CC(c4nnc(C5CC5)[nH]4)C3)C2)CC1` [Example 870, [4-[6-(5-cyclopropyl-4H-1,2,4-triazol-3-yl)-2-azaspiro[3.3]heptane-2-carbonyl]piperazino]-[5-(2-pyridyl)-2-thienyl]methanone] is 821 nM.
`O=C(N1CC2(CC(Cc3ccc4c(C(F)(F)F)cn(CCO)c4n3)C2)C1)N1CC2(CC(c3nc(C4CC4)n[nH]3)C2)C1` [Example 858] came in with an IC50 of 0.02 nM.
The figure for `O=C(N1CC2(CC(c3ccc(S(=O)(=O)C(F)(F)F)cc3)C2)C1)N1CC2(CC(c3nnc(C4CC4)[nH]3)C2)C1` [compound 413] is 0.34 nM.
The figure for `N=S(=O)(c1cccc(OC(F)(F)F)c1)C1CC2(C1)CN(C(=O)N1CC3(CC(c4nnc(C5CC5)[nH]4)C3)C1)C2` (centres unmarked) [compound 575] is 4.02 nM; for `O=C(N1CC2(CC(c3nc(C4CC4)n[nH]3)C2)C1)N1CC2(CN(Cc3cnn(C(F)F)c3)C2)C1` [compound 628] it is 149 nM; for `O=C(N1CC2(CC(c3nc(C4CC4)n[nH]3)C2)C1)N1CC2(CC(c3nc(C4CC4)n[nH]3)C2)C1` [compound 407] it is 9.24 nM.
With `CC(C)(O)C1CN(c2ccc(C3CN(C(=O)N4CC5(CC(c6nnc(C7CC7)[nH]6)C5)C4)C3)cn2)C1` [compound 298], the concentration for half-maximal inhibition (IC50) was determined as 8.03 nM.
`O=C(N1CC(c2ccc(NC3(C(F)(F)F)CC3)nc2)C1)N1CC2(CC(c3nnc(C4(O)CC4)[nH]3)C2)C1` [compound 272] returned an IC50 of 3.67 nM.
The molecule `O=C(N1CCN(Cc2ccc(C(F)(F)F)cn2)CC1)N1CC2(CC(c3nnc(C4CC4)[nH]3)C2)C1` [Example 876] returned an IC50 of 806 nM.
With `O=C(N1CC2(CC(Cc3ccc(C(F)(F)F)cc3F)C2)C1)N1CC2(CC(c3nnc(C4CC4)[nH]3)C2)C1` [compound 37], the concentration for half-maximal inhibition (IC50) stood at 0.01 nM.
In turn, `O=C(N1CC(c2ccc(N3CC4(CCCC4)C3)nc2)C1)N1CC2(CC(c3nc(C4(O)CC4)n[nH]3)C2)C1` [compound 937] came in with an IC50 of 1.58 nM.
As for `CC(C)(C(=O)O)c1cccc(OC2CN(C(=O)N3CC4(CC(c5nnc(C6CC6)[nH]5)C4)C3)C2)c1` [Example 387, 2-[3-[1-[6-(5-cyclopropyl-4H-1,2,4-triazol-3-yl)-2-azaspiro[3.3]heptane-2-carbonyl]azetidin-3-yl]oxyphenyl]-2-methyl-propanoic Acid], the figure is 79.6 nM.
The figure for `N=S(=O)(c1cccc(CC2CC3(C2)CN(C(=O)N2CC4(CC(c5nnc(C6CC6)[nH]5)C4)C2)C3)c1)C(F)(F)F` (racemic) [compound 125] is 0.08 nM.
The figure for `O=C(N1CC2(CC(c3nc(C4CC4)n[nH]3)C2)C1)N1CC2(CN(Cc3nc(C(F)(F)F)no3)C2)C1` [compound 662] is 11.9 nM.
For the molecule `CS(=O)(=O)c1cc(F)ccc1CC1CC2(C1)CN(C(=O)N1CC3(CC(c4nnc(C5CCC5)[nH]4)C3)C1)C2` [compound 25], it took 4.48 nM to reach half-maximal inhibition (IC50).
The figure for `CS(=O)(=O)c1cc(C(F)(F)F)ccc1COC1CCN(C(=O)N2CC3(CC(c4nc(C5CC5)n[nH]4)C3)C2)CC1` [Example 907, [6-(3-cyclopropyl-1H-1,2,4-triazol-5-yl)-2-azaspiro[3.3]heptan-2-yl]-[4-[2-mesyl-4-(trifluoromethyl)benzyl]oxypiperidino]methanone] is 43.1 nM; for `CS(=O)(=O)c1cccc(CN2CCC3(CC2)CN(C(=O)N2CC4(CC(c5nnc(C6CC6)[nH]5)C4)C2)C3)c1` [compound 181] it is 36.2 nM; for `O=C(N1CC2(CC(c3nc(C4CC4)n[nH]3)C2)C1)N1CC2(CN(Cc3nnc(C(F)(F)F)s3)C2)C1` [compound 485] it is 64.5 nM.
As for `Cn1ncc(C(F)(F)F)c1CN1CC2(C1)CN(C(=O)N1CC3(CC(c4nc(C5CC(F)(F)C5)n[nH]4)C3)C1)C2` [compound 658], the figure is 412 nM; as for `COc1cc(COC2CCN(C(=O)N3CC4(CC(c5nc(C6CC6)n[nH]5)C4)C3)CC2)ccc1C#N` [Example 904], 159 nM.
The figure for `O=C(N1CC(C2CN(Cc3ccc(C(F)(F)F)cc3)C2)C1)N1CC2(CC(c3nnc(C4CC4)[nH]3)C2)C1` [compound 360] is 32 nM; for `O=C(NC1(C(F)(F)F)CC1)C1CC2(C1)CN(C(=O)N1CC3(CC(c4nnc(C5CC5)[nH]4)C3)C1)C2` [compound 72] it is 157 nM.
`O=C(N1CC2(CC(c3nc(C4CC4)n[nH]3)C2)C1)N1CC2(CN(Cc3nc(C4(C(F)(F)F)CC4)no3)C2)C1` [compound 959] came in with an IC50 of 7.44 nM.
As for `O=C(N1CC2(CC(Oc3ccc(C(F)(F)F)nn3)C2)C1)N1CC2(CC(c3nnc(C4(O)CC4)[nH]3)C2)C1` [compound 79], the figure is 43.4 nM; as for `O=C(N1CC2(CC(c3nnc(C4CC4)[nH]3)C2)C1)N1CC2(CN(Cc3ccc(C(F)(F)F)cn3)C2)C1` [compound 163], 4.11 nM; as for `COc1cc(Cl)ccc1CN(C)C1CN(C(=O)N2CC3(CC(c4nnc(C5CC5)[nH]4)C3)C2)C1` [Example 891, [3-[(4-chloro-2-methoxy-benzyl)-methyl-amino]azetidin-1-yl]-[6-(5-cyclopropyl-4H-1,2,4-triazol-3-yl)-2-azaspiro[3.3]heptan-2-yl]methanone], 34 nM.
The figure for `O=C(N1CC2(CC(c3nnc(C4(O)CC4)[nH]3)C2)C1)N1CC2(C1)CN(S(=O)(=O)c1ccc(C(F)(F)F)cc1)C2` [compound 104] is 198 nM; for `NC(=O)c1ccc(CC2CC3(C2)CN(C(=O)N2CC4(CC(c5nc(C6CC6)n[nH]5)C4)C2)C3)cc1OC(F)(F)F` [compound 913] it is 0.44 nM.
In turn, `O=C(N1CCC(c2nn(C[C@@H](O)C(F)(F)F)c3ccc(Cl)cc23)CC1)N1CC2(CC(c3nnc(C4CC4)[nH]3)C2)C1` [Example 865, [4-[5-chloro-1-[(2R)-3,3,3-trifluoro-2-hydroxy-propyl]indazol-3-yl]piperidino]-[6-(5-cyclopropyl-4H-1,2,4-triazol-3-yl)-2-azaspiro[3.3]heptan-2-yl]methanone] came in with an IC50 of 19.4 nM.
As for `O=C(N1CC2(CC(Cn3cc(C(F)(F)F)ncc3=O)C2)C1)N1CC2(CC(c3nc(C4CC4)n[nH]3)C2)C1` [compound 960], the figure is 5.16 nM; as for `O=C(N1CC(C23CC(c4ccc(S(=O)(=O)C(F)(F)F)cc4)(C2)C3)C1)N1CC2(CC(c3nc(C4CC4)n[nH]3)C2)C1` [compound 540], 0.05 nM; as for `O=C(N1CC2(CC(Cc3ccc(C(F)(F)F)cn3)C2)C1)N1CC2(CC(c3nnc(C4CCC4)[nH]3)C2)C1` [compound 112], 2.04 nM.
The figure for `O=C(N1CCC(OCc2ccc(C(F)(F)F)cc2F)CC1)N1CC2(CC(c3nc(C4CC4)n[nH]3)C2)C1` [Example 906, [6-(3-cyclopropyl-1H-1,2,4-triazol-5-yl)-2-azaspiro[3.3]heptan-2-yl]-[4-[2-fluoro-4-(trifluoromethyl)benzyl]oxypiperidino]methanone] is 5.61 nM.
As for `O=C(N1CC2(CCC(Cc3ccc(C(F)(F)F)nc3)CC2)C1)N1CC2(CC(c3nnc(C4(O)CC4)[nH]3)C2)C1` [compound 141], the figure is 10.6 nM; as for `O=C(N1CCC(NS(=O)(=O)c2ccc(C(F)(F)F)cc2)CC1)N1CC2(CC(c3nnc(C4CC4)[nH]3)C2)C1` [compound 248], 676 nM; as for `O=C(N1CC(NCc2cc(F)ccc2C(F)(F)F)C1)N1CC2(CC(c3nnc(C4CC4)[nH]3)C2)C1` [compound 187], 70.5 nM.
As for `CS(=O)(=O)c1cccc(CC2CC3(C2)CN(C(=O)N2CC4(CC(c5nnc(C6CCC6)[nH]5)C4)C2)C3)c1` [compound 17], the IC50 came out at 15.2 nM.
The figure for `NC(=O)C1(c2ccc(C3CN(C(=O)N4CC5(CC(c6nnc(C7CC7)[nH]6)C5)C4)C3)cc2)CC1` [Example 393, 1-[4-[1-[6-(5-cyclopropyl-4H-1,2,4-triazol-3-yl)-2-azaspiro[3.3]heptane-2-carbonyl]azetidin-3-yl]phenyl]cyclopropanecarboaamide] is 1.2 nM; for `O=C(N1CC2(CC(Cn3nccc3C(F)(F)F)C2)C1)N1CC2(CC(c3nc(C4COC4)n[nH]3)C2)C1` [compound 716] it is 29.2 nM.
For the molecule `N#Cc1cc(C(F)(F)F)ncc1C[C@H]1CCC2(C1)CN(C(=O)N1CC3(CC(c4nnc(C5CC5)[nH]4)C3)C1)C2` [compound 611], the IC50 amounted to 0.68 nM.
Regarding `O=C(N1CCC(OCc2ccc(OC(F)(F)F)cc2F)CC1)N1CC2(CC(c3nc(C4CC4)n[nH]3)C2)C1` [compound 905], half-maximal inhibition (IC50) was put at 5.92 nM.
On to `O=C(N1CC(c2ccc(-n3cnc(C(F)(F)F)n3)cc2)C1)N1CC2(CC(c3nnc(C4CC4)[nH]3)C2)C1` [compound 930], for which the 50% inhibitory concentration (IC50) amounted to 0.39 nM.
